Laboratory results reported in patent US12076417B2, “Plasma-derived nanoparticles” (NANOMEDX, INC., priority 2016, dated 2024).

What was measured:
[1] = test system: mice; experiment: IVIS fluorescence imaging of ICG after tail vein injection; details: mouse, in vivo
Protocol: In another animal experiment, mice were divided randomly into 3 groups: • 1) nanoP^3 only; • 2) nanoP^3 and ICG; or • 3) ICG only.
Following closure of the incision with silk sutures, each mouse was administered with 100 μL of the corresponding sample groups via tail vein injection: nanoP^3 control (9×10^9 nanoP^3), nanoP^3-ICG (9×10^9 nanoP^3 with 2.5 μg of ICG/10^9 nanoP^3) or ICG control (22.5 μg). Non-invasive imaging using IVIS was carried out for detection of fluorescence at Ex/Em=780 nm/820 nm.

[2] = Binding kinetics of ICG to nanoP^3; format: physicochemical
Protocol: The binding kinetics associated with the simple nanoP^3 conjugation process can be assessed by measuring the amount of bound cargo at different incubation time points and temperatures. NanoP^3 material was conjugated with the precise amount of indocyanine green (ICG) which was calculated in Example 5 to saturate the nanoparticle surface at a monolayer, i.e. 1.9×10^6 ICG molecules on a single nanoP^3 particle (99 nm radius). […] For this experiment, the plasma parameters were set at Q=3, 10 and 3 sccm for acetylene, nitrogen and argon, 150 mTorr and 50 W. The incubation of nanoP^3 (10^9 nanoP^3/mL) with ICG was performed at room temperature, in RT-PCR grade water (pH=7) for 1 hour.

[3] = test system: Horseradish Peroxidase (HRP); experiment: Activity of conjugated HRP detected with ABTS at 405 nm; format: biochemical; details: 0.5 μg/mL HRP, 4 hours incubation, after washing off free HRP
Protocol: NanoP^3 was collected from the nanoparticle collector under sterile conditions in a tissue culture hood with RT-PCR Grade water. The concentration of nanoparticles was measured by NanoSight LM10. Nanoparticles were then conjugated to desired antibodies (Goat anti-Rat IgG-Cy5; abcam ab6565; and Goat anti-Rabbit IgG; abcam ab150089 at 1:100 dilution), drugs (Doxorubicin: Sigma-Aldrich, D1515 at 100 μg/ml and Paclitaxel-Oregon Green 488, Invitrogen P22310 at 5 μg/mL) or proteins (Peroxidase from Horseradish; Sigma-Aldrich HRP; P6782 at 0.5 μg/mL) for up to 16 hours at 4° C., protected from light. Conjugation of HRP to 150 nm gold nanoparticles was performed (Cytodiagnostics; G-150) in an identical fashion. The samples were gently agitated using Bio RS-24 mini-rotator. […] The fluorescent intensity was measured using a plate reader, the Ex/Em were set in accordance to the fluorescent dye tag on each antibody or drug. […] For detection of HRP, conjugated nanoparticles and respective controls were incubated with ABTS (Sigma-Aldrich; A1888) and hydrogen peroxide (Merck; 386790) until colour was visible and measured at 405 nm. […]
Nanoparticles of nanoP^3 and gold (GNPs) were conjugated with horseradish peroxidase (HRP). These were detected by incubation with 2,2′-azino-bis(3-ethylbenzothiazoline-6-sulphonic acid) (ABTS). […]

| Molecule | fluorescence by IVIS at Ex/Em=780 nm/820 nm [1] | time to surface saturation ([2]; both 24° C. and 4° C.) | total cargo immobilized on nanoP^3 within first 30 seconds ([2]; incubation at 4° C.) [%] | total cargo immobilized on nanoP^3 within first 30 seconds ([2]; incubation at 24° C.) [%] | HRP activity (absorbance at 405 nm with ABTS) [3] |
| --- | --- | --- | --- | --- | --- |
| CC1(C)C(/C=C/C=C/C=C/C=C2\N(CCCCS(=O)(=O)[O-])c3ccc4ccccc4c3C2(C)C)=[N+](CCCCS(=O)(=O)[O-])c2ccc3ccccc3c21.[Na+] [ICG, sodium 4-[2-[(1E,3E,5E,7Z)-7-[1,1-dimethyl-3-(4-sulfonatobutyl)benzo[e]indol-2ylidene]hepta-1,3,5-trienyl]-1,1-dimethylbenzo[e]indol-3-ium-3-yl]butane-1-sulfonate] | absent | less than 5 minutes | 60 | 90 | – |
| Horseradish Peroxidase [HRP alone] | – | – | – | – | below background levels of activity |
